Reference: ChEMBL document CHEMBL3885881, “DrugMatrix”

Organism: Rattus norvegicus
Type: toxicity, organism-based, Sprague-Dawley
Details: in vivo, sc, 24 h, route mini-PUMP - SUBCUTANEOUS, time 1 day, vehicle 100 % SALINE; for ABSOLUTE EOSINOPHIL / ABSOLUTE LYMPHOCYTE / ABSOLUTE MONOCYTE / ABSOLUTE SEGMENTED NEUTROPHIL / BASOPHIL / EOSINOPHIL / ERYTHROCYTE COUNT / HEMATOCRIT / HEMOGLOBIN / LEUKOCYTE COUNT / LYMPHOCYTE / MEAN CORPUSCULAR HEMOGLOBIN / MEAN CORPUSCULAR HEMOGLOBIN CONCENTRATION / MEAN CORPUSCULAR VOLUME / MONOCYTE / NEUTROPHIL / NUCLEATED RED BLOOD CELLS / PLATELET COUNT: tissue Blood; for ALANINE AMINOTRANSFERASE / ALBUMIN / ALKALINE PHOSPHATASE / ASPARTATE AMINOTRANSFERASE / BLOOD UREA NITROGEN / CARBON DIOXIDE / CHLORIDE / CHOLESTEROL / CREATININE / GLUCOSE / LACTATE DEHYDROGENASE / LIPASE / PHOSPHORUS / POTASSIUM / SODIUM / TOTAL BILIRUBIN / TOTAL PROTEIN / URIC ACID: tissue Plasma
[1] = 0 mg/kg, vehicle control, dose level Control

Description: DrugMatrix - Regimen: Single

NC[C@H](O)c1ccc(O)c(O)c1 [NOREPINEPHRINE]
ABSOLUTE EOSINOPHIL [1]: 26.17 CELLS/uL
ABSOLUTE LYMPHOCYTE [1]: 10985.83 CELLS/uL
ABSOLUTE MONOCYTE [1]: 234.5 CELLS/uL
ABSOLUTE SEGMENTED NEUTROPHIL [1]: 1753.5 CELLS/uL
BASOPHIL [1]: 0%
EOSINOPHIL [1]: 0.17%
ERYTHROCYTE COUNT [1]: 5.64 x10E6/uL
HEMATOCRIT [1]: 34.52%
HEMOGLOBIN [1]: 12.68 G/DL
LEUKOCYTE COUNT [1]: 13 x10E3/uL
LYMPHOCYTE [1]: 84.5%
MEAN CORPUSCULAR HEMOGLOBIN [1]: 22.5 pg
MEAN CORPUSCULAR HEMOGLOBIN CONCENTRATION [1]: 36.78 G/DL
MEAN CORPUSCULAR VOLUME [1]: 61.18 fL
MONOCYTE [1]: 1.83%
NEUTROPHIL [1]: 13.5%
NUCLEATED RED BLOOD CELLS [1]: 0.17 /100WBC
PLATELET COUNT [1]: 679.17 x10E3/uL
ALANINE AMINOTRANSFERASE [1]: 42.67 u/L
ALBUMIN [1]: 3.77 G/DL
ALKALINE PHOSPHATASE [1]: 291.17 u/L
ASPARTATE AMINOTRANSFERASE [1]: 74.5 u/L
BLOOD UREA NITROGEN [1]: 15.33 mg/dL
CARBON DIOXIDE [1]: 30 mmol/L
CHLORIDE [1]: 100.83 MEQ/L
CHOLESTEROL [1]: 65.33 mg/dL
CREATININE [1]: 0.15 mg/dL
GLUCOSE [1]: 179.83 mg/dL
LACTATE DEHYDROGENASE [1]: 162.67 u/L
LIPASE [1]: 8.5 u/L
PHOSPHORUS [1]: 12.2 mg/dL
POTASSIUM [1]: 5.73 MEQ/L
SODIUM [1]: 144.7 MEQ/L
TOTAL BILIRUBIN [1]: 0.15 mg/dL
TOTAL PROTEIN [1]: 5.87 G/DL
URIC ACID [1]: 1.93 mg/dL
ABSOLUTE EOSINOPHIL (1.75 mg/kg, dose level High): 128.33 CELLS/uL
ABSOLUTE LYMPHOCYTE (1.75 mg/kg, dose level High): 11603.67 CELLS/uL
ABSOLUTE MONOCYTE (1.75 mg/kg, dose level High): 444.67 CELLS/uL
ABSOLUTE SEGMENTED NEUTROPHIL (1.75 mg/kg, dose level High): 3490 CELLS/uL
BASOPHIL (1.75 mg/kg, dose level High): 0%
EOSINOPHIL (1.75 mg/kg, dose level High): 1%
ERYTHROCYTE COUNT (1.75 mg/kg, dose level High): 6.6 x10E6/uL
HEMATOCRIT (1.75 mg/kg, dose level High): 39.53%
HEMOGLOBIN (1.75 mg/kg, dose level High): 14.47 G/DL
LEUKOCYTE COUNT (1.75 mg/kg, dose level High): 15.67 x10E3/uL
LYMPHOCYTE (1.75 mg/kg, dose level High): 74%
MEAN CORPUSCULAR HEMOGLOBIN (1.75 mg/kg, dose level High): 21.97 pg
MEAN CORPUSCULAR HEMOGLOBIN CONCENTRATION (1.75 mg/kg, dose level High): 36.6 G/DL
MEAN CORPUSCULAR VOLUME (1.75 mg/kg, dose level High): 60.07 fL
MONOCYTE (1.75 mg/kg, dose level High): 3%
NEUTROPHIL (1.75 mg/kg, dose level High): 22%
NUCLEATED RED BLOOD CELLS (1.75 mg/kg, dose level High): 0 /100WBC
PLATELET COUNT (1.75 mg/kg, dose level High): 1126 x10E3/uL
ALANINE AMINOTRANSFERASE (1.75 mg/kg, dose level High): 33 u/L
ALBUMIN (1.75 mg/kg, dose level High): 4.03 G/DL
ALKALINE PHOSPHATASE (1.75 mg/kg, dose level High): 413.33 u/L
ASPARTATE AMINOTRANSFERASE (1.75 mg/kg, dose level High): 77.33 u/L
BLOOD UREA NITROGEN (1.75 mg/kg, dose level High): 10.33 mg/dL
CARBON DIOXIDE (1.75 mg/kg, dose level High): 27.67 mmol/L
CHLORIDE (1.75 mg/kg, dose level High): 101 MEQ/L
CHOLESTEROL (1.75 mg/kg, dose level High): 102 mg/dL
CREATININE (1.75 mg/kg, dose level High): 0.12 mg/dL
GLUCOSE (1.75 mg/kg, dose level High): 268 mg/dL
LACTATE DEHYDROGENASE (1.75 mg/kg, dose level High): 247.67 u/L
LIPASE (1.75 mg/kg, dose level High): 9 u/L
PHOSPHORUS (1.75 mg/kg, dose level High): 14.8 mg/dL
POTASSIUM (1.75 mg/kg, dose level High): 6.26 MEQ/L
SODIUM (1.75 mg/kg, dose level High): 146.7 MEQ/L
TOTAL BILIRUBIN (1.75 mg/kg, dose level High): 0.13 mg/dL
TOTAL PROTEIN (1.75 mg/kg, dose level High): 6.4 G/DL
URIC ACID (1.75 mg/kg, dose level High): 3.1 mg/dL
